Test results taken from ChEMBL document CHEMBL1201862, “PubChem BioAssay data set” (2004).
Activity calls are given as the source filed them.

What was measured:
[1] = human group III sPLA2 inhibitors, dose response, biochemical, QFRET, IC50 (AID 743457);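 also: green fluorescence rise as the enzyme cleaves BODIPY PC-A2 in liposomes; potency for inhibition of the enzyme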
cells [2] = type: functional, cell-based
[3] = target: T1, Trace amine-associated receptor 1 (Homo sapiens, UniProt Q96RJ0); test: Fluorescence-based cell-based high throughput dose response assay to identify agonists of the human trace amine associated receptor 1 (TAAR1).; type: functional
T1 sequence (Q96RJ0 whole entry): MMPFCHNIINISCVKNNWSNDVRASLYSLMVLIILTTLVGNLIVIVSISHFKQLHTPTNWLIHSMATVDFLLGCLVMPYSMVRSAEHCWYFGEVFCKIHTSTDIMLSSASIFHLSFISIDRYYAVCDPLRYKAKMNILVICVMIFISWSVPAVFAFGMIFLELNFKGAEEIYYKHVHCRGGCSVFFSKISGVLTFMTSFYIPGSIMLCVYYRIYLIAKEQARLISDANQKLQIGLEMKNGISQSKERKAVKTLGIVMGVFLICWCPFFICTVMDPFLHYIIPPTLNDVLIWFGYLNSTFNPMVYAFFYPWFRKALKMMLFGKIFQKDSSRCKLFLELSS

[4] = target: T1, Trace amine-associated receptor 1; test: Counterscreen for agonists of the human trace amine associated receptor 1 (hTAAR1): Fluorescence-based cell-based high throughput dose response assay to identify hTAAR1 agonist that also desensitize TAAR1 receptor response.; type: functional
cells [5] = type: functional, cell-based; remark: listed apart in the source
[6] = target: Bifunctional protein GlmU (Mycobacterium tuberculosis, UniProt P9WMN3); test: Inhibitors of Mycobacterial Glucosamine-1-phosphate acetyl transferase (GlmU). Secondary screen.; parameters: species or system Mycobacterium tuberculosis H37Rv
Chain of Bifunctional protein GlmU (P9WMN3 whole entry): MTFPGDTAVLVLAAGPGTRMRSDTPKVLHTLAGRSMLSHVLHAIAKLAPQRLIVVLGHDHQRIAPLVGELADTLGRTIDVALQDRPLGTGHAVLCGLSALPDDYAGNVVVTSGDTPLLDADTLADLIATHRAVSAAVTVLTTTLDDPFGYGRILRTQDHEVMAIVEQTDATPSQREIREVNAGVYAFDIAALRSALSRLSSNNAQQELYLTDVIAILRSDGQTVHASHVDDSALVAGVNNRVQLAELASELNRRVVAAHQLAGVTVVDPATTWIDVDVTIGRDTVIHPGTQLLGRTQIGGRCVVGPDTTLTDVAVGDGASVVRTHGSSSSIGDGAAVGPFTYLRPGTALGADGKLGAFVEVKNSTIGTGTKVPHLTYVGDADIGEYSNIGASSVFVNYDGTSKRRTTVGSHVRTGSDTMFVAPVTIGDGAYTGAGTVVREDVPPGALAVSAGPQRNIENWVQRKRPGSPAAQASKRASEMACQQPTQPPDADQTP

[7] = target: COUP transcription factor 2 (Homo sapiens, UniProt P24468); test: Luminescence-based cell-based high throughput dose response assay to identify inhibitors of COUP-TFII (NR2F2).; type: functional;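 also: HEK293 cells transiently cotransfected with COUP-TFII expression vector and reporter; luciferase reporter luminescence driven by COUP-TFII from the pX2-168 reporter plasmid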
Chain of COUP transcription factor 2 (P24468 whole entry): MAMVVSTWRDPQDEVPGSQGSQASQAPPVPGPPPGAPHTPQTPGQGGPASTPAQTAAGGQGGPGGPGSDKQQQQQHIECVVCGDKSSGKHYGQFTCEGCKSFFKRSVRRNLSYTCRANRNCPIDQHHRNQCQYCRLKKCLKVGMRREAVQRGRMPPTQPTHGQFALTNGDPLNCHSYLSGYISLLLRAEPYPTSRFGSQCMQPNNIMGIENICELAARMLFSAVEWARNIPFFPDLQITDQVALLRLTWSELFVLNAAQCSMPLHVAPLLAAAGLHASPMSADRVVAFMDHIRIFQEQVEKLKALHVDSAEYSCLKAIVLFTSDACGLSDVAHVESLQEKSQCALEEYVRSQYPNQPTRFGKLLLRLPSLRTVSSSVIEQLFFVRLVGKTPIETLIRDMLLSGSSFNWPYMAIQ

Galanin receptor type 3 = Galanin receptor type 3 (Homo sapiens, UniProt O60755); test: Fluorescence-based cell-based primary high throughput dose response assay to identify antagonists of the Galanin Receptor 3 (GalR3).; type: functional
Chain of Galanin receptor type 3 (O60755 whole entry): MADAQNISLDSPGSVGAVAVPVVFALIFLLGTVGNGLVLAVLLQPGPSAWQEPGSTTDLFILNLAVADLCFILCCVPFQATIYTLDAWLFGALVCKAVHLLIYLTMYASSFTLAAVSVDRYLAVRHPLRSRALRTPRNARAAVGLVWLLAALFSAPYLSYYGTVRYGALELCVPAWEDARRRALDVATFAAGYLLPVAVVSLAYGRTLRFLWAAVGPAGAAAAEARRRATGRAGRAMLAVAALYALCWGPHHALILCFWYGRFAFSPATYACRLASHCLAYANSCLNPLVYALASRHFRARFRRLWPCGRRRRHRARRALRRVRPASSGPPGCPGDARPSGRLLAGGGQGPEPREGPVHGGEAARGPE

cells [8] = type: functional, cell-based; details: HEK-CNG
[9] = target: T2, Calpain-2 catalytic subunit (Sus scrofa, UniProt P43367); test: pig calpain II inhibitor potency, dose response, biochemical, fluorogenic peptide substrate (AID 1420); type: functional
T2 sequence (P43367 whole entry): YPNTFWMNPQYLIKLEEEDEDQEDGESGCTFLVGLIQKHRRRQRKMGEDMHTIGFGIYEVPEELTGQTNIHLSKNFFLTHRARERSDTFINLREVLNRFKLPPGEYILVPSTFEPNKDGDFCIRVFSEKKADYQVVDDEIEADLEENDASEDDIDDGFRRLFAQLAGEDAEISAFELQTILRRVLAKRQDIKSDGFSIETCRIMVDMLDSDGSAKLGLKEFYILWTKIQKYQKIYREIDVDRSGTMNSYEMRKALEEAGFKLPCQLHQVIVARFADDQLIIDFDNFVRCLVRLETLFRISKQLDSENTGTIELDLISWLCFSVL

[10] = inhibitors of PGC1a acetylation in cells, dose response, cell-based, cherry-picked samples (AID 720514); type: functional;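 also: potency may reflect raised or lowered acetylation signal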
[11] = P. falciparum 3D7-ScDHODH growth inhibitors, dose response, SYBR Green, dry powder samples (AID 1159570); type: functional, cell-based;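 also: parasite growth measured after 72 hours of compound exposure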
[12] = HepG2 cell cytotoxicity, dose response, cytotoxicity control, plate reader, dry powder samples (AID 1159569); type: functional, cell-based;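 also: inhibitor potency with signal falling toward the positive control level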
[13] = P. falciparum Dd2 growth inhibitors, dose response, SYBR Green, cherry-picked samples (AID 1159567); type: functional, cell-based
[14] = P. falciparum Dd2 growth inhibitors, dose response, SYBR Green, dry powder samples (AID 1159566); type: functional, cell-based;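 also: potency for growth inhibition with lower SYBR green DNA signal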
[15] = P. falciparum ATP4 D1247Y mutant growth inhibitors, dose response, NITD609-resistant line, SYBR Green, dry powder (AID 1159571); type: functional, cell-based;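 also: parasites synchronized at ring stage by sorbitol before testing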
[16] = Concentration-dependent survival of SW480 colon cancer line, luminescence detection with CellTiter-Glo, half-maximal inhibitory concentration (AID 1117338); type: functional
[17] = RKO cell viability reduction, dose response, CellTiter-Glo luminescence (AID 1117322); type: functional
[18] = cytotoxicity toward HCT116 cells – cell-based, CellTiter-Glo luminescence, IC50, dose response (AID 1117332); type: functional; details: HCT-116
[19] = SNU-C1 cell viability reduction, dose response, CellTiter-Glo luminescence (AID 1117323); type: functional, cell-based
[20] = cytotoxicity toward Colo320 cells – cell-based, CellTiter-Glo luminescence, IC50, dose response (AID 1117334); type: functional; details: COLO 320
[21] = cytotoxicity toward HT-29 cells – cell-based, CellTiter-Glo luminescence, IC50, dose response (AID 1117330); type: functional
[22] = CellTiter-Glo luminescent dose response of DLD-1 viability loss (AID 1117352); type: functional
[23] = HCT116 cell viability decrease, GSK3B pretreatment – CellTiter-Glo, IC50, dose response (AID 1117339); type: functional; details: HCT-116

Question: For `CC(C)Cc1c(C#N)c(S)nc2c1CCCC2`, which IC50 [1] is on record?
Answer: > 122 µM (inactive)

Question: Which IC50 (cells [2]) does the source give for `O=C(O)/C=C/C(=O)NCCc1ccccc1` here?
Answer: > 29.9 µM (inactive)

Question: What about the EC50 [3] of the same molecule?
Answer: 0.153 µM (active)

Question: What about the IC50 [4] of the same molecule?
Answer: 1.19 µM (active)

Question: What about the EC50 (cells [5]) of the same molecule?
Answer: > 29.9 µM (inactive)

Question: With `O=C(O)C1C2C=CC(CC2)C1C(=O)O` (stereo not given) as the molecule, how does the IC50 [6] read?
Answer: 114 µM (active)

Question: With `CC1Cc2cc(-c3csc(NC(=O)Cc4ccccc4)n3)ccc2N1S(C)(=O)=O` (stereo not given) as the molecule, how does the IC50 [7] read?
Answer: 6.11 µM (active)

Question: For `CCCCC[C@@H](/C=C/C1C(=O)C=C[C@H]1C/C=C\CCCC(=O)O)OC(C)=O` (stereo not given in full), which IC50 (Galanin receptor type 3) is on record?
Answer: 1.09 µM (active)

Question: And the EC50 (cells [8])?
Answer: > 29.9 µM (inactive)

Question: For `O=C(O)c1cc(C(=O)O)cc(-c2ccc(/C=c3/sc4nc5ccccc5n4c3=O)o2)c1`, which IC50 [9] is on record?
Answer: 22 µM (not active)

Question: And the IC50 [6]?
Answer: 34.1 µM (active)

Question: With `CO[C@@H]1CN(C)C(=O)c2cc(NC(C)=O)ccc2OC[C@@H](C)N(Cc2ccccc2C(=O)O)C[C@@H]1C` as the molecule, how does the AC50 [10] read?
Answer: 23.6 µM (active)

Question: For `COc1cccc(CN(C)C[C@H]2OCc3ccccc3-c3c(n(C)c4ccccc34)C(=O)N([C@H](C)CO)C[C@@H]2C)c1`, which AC50 [11] is on record?
Answer: 3.29 µM (active)

Question: What about the AC50 [12] of the same molecule?
Answer: 20.6 µM (active)

Question: And the AC50 [13]?
Answer: 2.76 µM (active)

Question: What about the AC50 [14] of the same molecule?
Answer: 2.87 µM (active)

Question: And the AC50 [15]?
Answer: 3.55 µM (active)

Question: With `O=C(c1ccc(F)cc1)N1CC(=O)N2[C@H](CO)[C@H](c3ccc(-c4cccnc4)cc3)[C@H]2C1` as the molecule, how does the AC50 [11] read?
Answer: 1.2 µM (active)

Question: What about the AC50 [12] of the same molecule?
Answer: > 100 µM (inactive)

Question: What about the AC50 [13] of the same molecule?
Answer: 0.821 µM (active)

Question: And the AC50 [14]?
Answer: 0.964 µM (active)

Question: What about the AC50 [15] of the same molecule?
Answer: 1.27 µM (active)

Question: What does the source list for `O=C1NCCN1CCN1CCC(c2cn(-c3ccc(F)cc3)c3ccc(Cl)cc23)CC1` [SERTINDOLE]?
Answer: IC50 [16]: 2.81 µM (active); IC50 [17]: 2.6 µM (active); IC50 [18]: 2.16 µM (active); IC50 [19]: 1.43 µM (active); IC50 [20]: 3.7 µM (active); IC50 [21]: 2.86 µM (active); IC50 [22]: 5.62 µM (inactive); IC50 [23]: 3.52 µM (active)
